Reference: publication PMC10065799, “High-throughput profiling of sequence recognition by tyrosine kinases and SH2 domains using bacterial peptide display” (eLife, 2023)

Tests used:
Test in all cases: pTyr-Var library bacterial peptide display kinase screen (enrichment scores)
EPHB1 kinase domain = format: biochemical, human; settings: for Screen (variant relative to reference peptide, measured in the pTyr-Var library screen): sheet "EPHB1", variant seq vs reference seq, bacterial peptide display enrichment; for Screen: sheet EPHB1, effect of the variant peptide relative to its reference peptide in the pTyr-Var library screen (enrichment scores)
c-Src kinase domain = c-Src kinase domain (Homo sapiens, UniProt P12931); format: biochemical; settings: sheet "Src";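 also: log2 fold change in enrichment of variant over reference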
Fer kinase domain = format: biochemical, mouse; settings: sheet "Fer"
c-Abl kinase domain = target: T1, c-Abl kinase domain (Mus musculus, UniProt P00520); format: biochemical;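 also: log2 fold change in enrichment of variant over reference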
T1 sequence (P00520 242-493 limits assumed): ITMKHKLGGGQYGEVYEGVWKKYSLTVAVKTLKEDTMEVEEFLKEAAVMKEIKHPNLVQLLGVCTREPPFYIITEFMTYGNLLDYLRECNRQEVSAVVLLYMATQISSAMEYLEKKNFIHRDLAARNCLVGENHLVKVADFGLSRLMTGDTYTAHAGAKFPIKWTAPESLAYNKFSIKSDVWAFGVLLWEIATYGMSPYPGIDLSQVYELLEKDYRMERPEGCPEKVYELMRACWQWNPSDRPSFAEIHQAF

[1] = variant peptide versus its reference peptide in the pTyr-Var library screen
[2] = value of the variant peptide against its reference peptide in the pTyr-Var library screen with Fer
[3] = effect of the variant peptide relative to its reference peptide in the pTyr-Var library screen
[4] = fig5-data2, sheet "Abl", Screen for the variant/reference peptide pair, pTyr-Var library
[5] = variant peptide relative to its reference peptide, pTyr-Var library screen enrichment
[6] = sheet "Abl", effect of variant peptide relative to its reference peptide in pTyr-Var library screen (enrichment)

Sequence: RRIHSYRGHVW [VHL_Y112_L116V]
- Screen (variant relative to reference peptide, measured in the pTyr-Var library screen) (EPHB1 kinase domain): -1.04
- Screen (c-Src kinase domain; [1]): -1.808

Sequence: FDGGCYEQLFV [MC4R_Y41_S36Y_YF]
- Screen (Fer kinase domain; [2]): 0.1035
- Screen (c-Src kinase domain; [3]): 0.4972

Sequence: QRPFVYFFSFL [PTEN_Y176_R173P_YF]
- Screen (Fer kinase domain; [2]): -0.4962

Sequence: SARVRYLMAEK [LDHB_Y173_F171V]
- Screen (c-Abl kinase domain; [4]): 1.358

Sequence: RRNEEYCLLAS [ITK_Y198_D202A]
- Screen (EPHB1 kinase domain): -0.2034

Sequence: NNFGNYNNQSS [HNRNPA1_Y318_D314N]
- Screen (c-Abl kinase domain; [4]): 1.57

Sequence: QQLQGYVPSNF [FRK_Y99_I100V_YF]
- Screen (c-Abl kinase domain; [4]): 0.6322

Sequence: DGQVNYEGFVQ [CALM1_Y139_E141G]
- Screen (EPHB1 kinase domain): -0.1972

Sequence: KRNSLYSFSDH [CCDC82_Y331_Q327R]
- Screen (Fer kinase domain; [2]): -2.294
- Screen (c-Src kinase domain; [3]): -1.645

Sequence: GKVADYIPQLP [GLS_Y249_A254P]
- Screen (c-Abl kinase domain; [4]): 0.08452

Sequence: HHFAAYFQQGD [GPI_Y351_R347H]
- Screen (c-Abl kinase domain; [4]): 0.4221

Sequence: CSEEMYCLMLQ [RET_Y981_R982C]
- Screen (Fer kinase domain; [5]): 3.517
- Screen (c-Src kinase domain; [1]): 1.894

Sequence: LMQAEYWHDPI [PPT1_Y185_V181M]
- Screen (c-Abl kinase domain; [4]): 0.6191

Sequence: KVALLYKPFFF [POLE_Y100_P99L_YF]
- Screen (c-Src kinase domain; [1]): 1.635

Sequence: GRDVIYKGFED [NFU1_Y194_G190R]
- Screen (c-Src kinase domain; [1]): -0.4839

Sequence: FFFDLYGGEKF [PTPN11_Y66_D61Y_YF]
- Screen (c-Src kinase domain; [1]): -1.282

Sequence: TTGGFYSFGGG [KRT24_Y120_A115T_YF]
- Screen (Fer kinase domain; [2]): -0.6603
- Screen (c-Src kinase domain; [3]): -0.1401

Sequence: GGMTEYELVVV [KRAS_Y4_K5E]
- Screen (Fer kinase domain; [2]): 4.104

Sequence: HGQVNYEEFVQ [CALM2_Y139_D134H]
- Screen (EPHB1 kinase domain): 1.863

Sequence: AFQGKYTPSGQ [ALDOA_Y343_C339Y_YF]
- Screen (c-Abl kinase domain; [4]): -0.08587

Sequence: WDLTDYLMKIL [ACTB_Y188_R183W]
- Screen (c-Abl kinase domain; [4]): 1.288

Sequence: FQKNSYSEELR [LMNA_Y211_I210S]
- Screen (c-Src kinase domain; [3]): -2.048

Sequence: PLRAFYLIARV [HLCS_Y635_D634Y_YF]
- Screen (c-Src kinase domain; [3]): 1.953

Sequence: NFFDLYGGEKF [PTPN11_Y66_D61N_YF]
- Screen (c-Src kinase domain; [1]): -0.03521

Sequence: INQGPYENHSV [ATP6V1B1_Y462_R465H]
- Screen (Fer kinase domain; [2]): 4.636

Sequence: VKPENYRRLDV [VHL_Y175_I180V]
- Screen (c-Abl kinase domain; [6]): -5.31

Sequence: DCLASYLDKVR [KRT14_Y129_R125C]
- Screen (c-Abl kinase domain; [4]): 1.479

Sequence: VRFVDYVLFRS [FAM189B_Y361_S358F]
- Screen (EPHB1 kinase domain): 1.362

Sequence: PNRILYGDFWQ [MYH6_Y717_R721W]
- Screen (c-Src kinase domain; [3]): -0.3786

Sequence: ERDTVYSSSGV [NELL2_Y350_N347D]
- Screen (c-Src kinase domain; [1]): 1.43

Sequence: TTPAVYARVTK [CTRB2_Y246_A250T]
- Screen (c-Src kinase domain; [3]): 0.6652

Sequence: RRIHRYRGHLW [VHL_Y112_S111R]
- Screen (variant relative to reference peptide, measured in the pTyr-Var library screen) (EPHB1 kinase domain): -1.747
- Screen (c-Src kinase domain; [1]): -2.928

Sequence: SILTVYSKDNF [PANK2_Y400_A398T_YF]
- Screen (c-Src kinase domain; [1]): -1.709

Sequence: EEETDYTPVWC [UROD_Y30_G25E]
- Screen (c-Abl kinase domain; [6]): 0.6447

Sequence: TGNPAYRSFSN [IL4R_Y497_A492T]
- Screen (c-Abl kinase domain; [4]): 1.02

Sequence: RGKDNYETSQL [SPP1_Y225_S224N]
- Screen (c-Abl kinase domain; [6]): 0.8642

Sequence: SVTCTYSLALN [TP53_Y126_P128L]
- Screen (c-Src kinase domain; [1]): 1.349

Sequence: SPPEVYAIMRG [NTRK1_Y757_C752S]
- Screen (c-Src kinase domain; [1]): 0.1672

Sequence: LSEEKYELKEG [TREM1_Y29_T25S]
- Screen (c-Abl kinase domain; [6]): -1.268

Sequence: DLEKTYNTFRS [B4GALNT2_Y538_A533D_YF]
- Screen (c-Src kinase domain; [3]): -0.01989

Sequence: GVSFIYTIDGS [DCX_Y105_R102S_YF]
- Screen (c-Abl kinase domain; [4]): -0.05601
- Screen (c-Src kinase domain; [3]): 0.9806

Sequence: NDENIYKGLPD [VAV3_Y141_D139N]
- Screen (c-Src kinase domain; [1]): 1.088

Sequence: HESEIYGKVCF [CSRP3_Y57_C58G_YF]
- Screen (Fer kinase domain; [2]): 1.394
- Screen (c-Src kinase domain; [3]): -0.5157

Sequence: REVPVYTFSEP [FAM120B_Y368_D370Y_YF]
- Screen (EPHB1 kinase domain): 0.7576
- Screen (Fer kinase domain; [2]): 3.619
- Screen (c-Src kinase domain; [3]): 3.398

Sequence: LPVHFYSHVEH [PYGM_Y204_G205S]
- Screen (Fer kinase domain; [5]): -0.5676

Sequence: LMFPDYLPCSV [SAG_Y129_T125M]
- Screen (c-Abl kinase domain; [6]): 0.9994

Sequence: TDTAAYEERLR [SPTB_Y474_V478L]
- Screen (c-Abl kinase domain; [6]): -0.2404

Sequence: LCHELYNTIRD [PBRM1_Y54_V49L]
- Screen (c-Src kinase domain; [1]): 1.3

Sequence: QHVPDYRQNGF [PCDHGA10_Y895_V899G_YF]
- Screen (c-Abl kinase domain; [4]): 0.583

Sequence: FSALDYKIFFF [WDPCP_Y210_L205F_YF]
- Screen (c-Abl kinase domain; [6]): -1.647

Sequence: KFDLMYAKLAF [TUBA1A_Y399_R402L]
- Screen (c-Src kinase domain; [1]): 2.907

Sequence: DFTSRYLSASD [PKHD1_Y828_N830S]
- Screen (c-Abl kinase domain; [4]): 0.6568
